The values below come from ChEMBL document CHEMBL4219107, “Synthesis and evaluation of 1H-pyrrole-2,5-dione derivatives as cholesterol absorption inhibitors for suppressing the formation of foam cells and inflammatory response” (Bioorg Med Chem, 2018).

The structures appear in SMILES notation. Active and inactive are the calls of the source. No cut-off for these calls is given here.

In data set [1] the test system is RAW264.7. Nature of the data set: Antiinflammatory activity against mouse RAW264.7 cells assessed as decrease in cholesterol-methyl-beta-cyclodextrin-induced ROS level at 30 uM relative to control. The class given is functional. More on the design: scale not given: the % may be the effect or the level left.
Data set [2] deals with NPC1-like intracellular cholesterol transporter 1 (Mus musculus) (UniProt Q6T3U4). The data set can be described thus: Inhibition of NPC1L1-mediated cholesterol-methyl-beta-cyclodextrin accumulation in mouse RAW264.7 cells incubated for 72 hrs by Oil Red O/hematoxyline staining based microscopic analysis. In kind it is cell-based.
NPC1-like intracellular cholesterol transporter 1 (Mus musculus), sequence (Q6T3U4 21-1333 limits assumed): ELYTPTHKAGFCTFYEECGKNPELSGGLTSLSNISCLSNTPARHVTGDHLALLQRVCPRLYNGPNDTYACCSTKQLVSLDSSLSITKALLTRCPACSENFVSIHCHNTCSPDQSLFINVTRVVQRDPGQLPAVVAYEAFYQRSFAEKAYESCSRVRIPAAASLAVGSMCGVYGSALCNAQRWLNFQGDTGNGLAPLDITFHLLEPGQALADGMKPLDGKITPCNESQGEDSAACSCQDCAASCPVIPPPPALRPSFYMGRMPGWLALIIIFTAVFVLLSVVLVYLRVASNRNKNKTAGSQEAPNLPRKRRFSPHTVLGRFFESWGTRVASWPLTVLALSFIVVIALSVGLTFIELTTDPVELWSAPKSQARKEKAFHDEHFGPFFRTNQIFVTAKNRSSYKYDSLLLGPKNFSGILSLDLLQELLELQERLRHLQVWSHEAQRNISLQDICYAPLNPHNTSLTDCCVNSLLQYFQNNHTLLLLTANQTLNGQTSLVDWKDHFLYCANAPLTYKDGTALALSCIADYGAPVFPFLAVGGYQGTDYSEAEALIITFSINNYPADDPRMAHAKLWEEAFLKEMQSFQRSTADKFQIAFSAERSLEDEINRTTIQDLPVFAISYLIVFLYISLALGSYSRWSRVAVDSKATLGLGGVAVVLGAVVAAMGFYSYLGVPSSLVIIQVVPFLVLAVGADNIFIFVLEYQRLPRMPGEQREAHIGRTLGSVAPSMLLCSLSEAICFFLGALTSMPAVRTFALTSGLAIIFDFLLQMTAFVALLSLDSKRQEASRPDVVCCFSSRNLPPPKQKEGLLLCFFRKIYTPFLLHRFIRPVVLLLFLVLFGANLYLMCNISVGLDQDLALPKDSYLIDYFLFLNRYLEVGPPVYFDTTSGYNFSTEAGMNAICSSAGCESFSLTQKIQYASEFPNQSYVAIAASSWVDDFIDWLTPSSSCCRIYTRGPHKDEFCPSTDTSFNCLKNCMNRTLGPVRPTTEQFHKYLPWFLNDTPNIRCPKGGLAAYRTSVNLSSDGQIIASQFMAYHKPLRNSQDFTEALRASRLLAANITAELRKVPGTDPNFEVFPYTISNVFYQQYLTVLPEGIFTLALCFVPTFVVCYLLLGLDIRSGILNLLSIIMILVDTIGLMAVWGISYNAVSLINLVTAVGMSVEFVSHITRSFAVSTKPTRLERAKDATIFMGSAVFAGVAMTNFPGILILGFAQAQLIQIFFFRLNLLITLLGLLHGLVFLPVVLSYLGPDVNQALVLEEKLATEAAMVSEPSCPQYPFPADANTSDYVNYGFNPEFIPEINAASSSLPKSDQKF
Data set [3] can be described thus: Cytotoxicity against mouse RAW264.7 cells after 48 hrs by MTT assay. In kind it is cell-based. The following applies: read-out: LC50. (In general: Formazan colour is commonly taken as a measure of viable cells.)
Data set [4] concerns the target NPC1-like intracellular cholesterol transporter 1 (Mus musculus) (UniProt Q6T3U4). The data set can be described thus: Inhibition of NPC1L1-mediated cholesterol-methyl-beta-cyclodextrin accumulation in mouse RAW264.7 cells assessed as decrease in foam cell formation by measuring decrease in LDH level at 30 uM relative to control. The class given is cell-based. More on the design: scale not given: the % may be the effect or the level left.

Data set [5] shares this target. The data set can be described thus: Inhibition of NPC1L1 in mouse RAW264.7 cells assessed as decrease in choleserol-D7 absorption at 30 uM after 72 hrs by LC-MS/MS analysis relative to control. The class given is cell-based.
The target is the same in data set [6]. The data set can be described thus: Inhibition of NPC1L1-mediated cholesterol-methyl-beta-cyclodextrin accumulation in mouse RAW264.7 cells assessed as decrease in foam cell formation by measuring decrease in MDA level at 30 uM relative to control. The class given is cell-based. On the set-up: scale not given: the % may be the effect or the level left.
The test system of data set [7] is RAW264.7. Nature of the data set: Antiinflammatory activity against mouse RAW264.7 cells assessed as decrease in cholesterol-methyl-beta-cyclodextrin-induced TNFalpha release at 30 uM relative to control. More on the design: scale not given: the % may be the effect or the level left. In kind it is functional.
The target of data set [8] is T1, NPC1-like intracellular cholesterol transporter 1 (Homo sapiens) (UniProt Q9UHC9).
T1 sequence (whole entry): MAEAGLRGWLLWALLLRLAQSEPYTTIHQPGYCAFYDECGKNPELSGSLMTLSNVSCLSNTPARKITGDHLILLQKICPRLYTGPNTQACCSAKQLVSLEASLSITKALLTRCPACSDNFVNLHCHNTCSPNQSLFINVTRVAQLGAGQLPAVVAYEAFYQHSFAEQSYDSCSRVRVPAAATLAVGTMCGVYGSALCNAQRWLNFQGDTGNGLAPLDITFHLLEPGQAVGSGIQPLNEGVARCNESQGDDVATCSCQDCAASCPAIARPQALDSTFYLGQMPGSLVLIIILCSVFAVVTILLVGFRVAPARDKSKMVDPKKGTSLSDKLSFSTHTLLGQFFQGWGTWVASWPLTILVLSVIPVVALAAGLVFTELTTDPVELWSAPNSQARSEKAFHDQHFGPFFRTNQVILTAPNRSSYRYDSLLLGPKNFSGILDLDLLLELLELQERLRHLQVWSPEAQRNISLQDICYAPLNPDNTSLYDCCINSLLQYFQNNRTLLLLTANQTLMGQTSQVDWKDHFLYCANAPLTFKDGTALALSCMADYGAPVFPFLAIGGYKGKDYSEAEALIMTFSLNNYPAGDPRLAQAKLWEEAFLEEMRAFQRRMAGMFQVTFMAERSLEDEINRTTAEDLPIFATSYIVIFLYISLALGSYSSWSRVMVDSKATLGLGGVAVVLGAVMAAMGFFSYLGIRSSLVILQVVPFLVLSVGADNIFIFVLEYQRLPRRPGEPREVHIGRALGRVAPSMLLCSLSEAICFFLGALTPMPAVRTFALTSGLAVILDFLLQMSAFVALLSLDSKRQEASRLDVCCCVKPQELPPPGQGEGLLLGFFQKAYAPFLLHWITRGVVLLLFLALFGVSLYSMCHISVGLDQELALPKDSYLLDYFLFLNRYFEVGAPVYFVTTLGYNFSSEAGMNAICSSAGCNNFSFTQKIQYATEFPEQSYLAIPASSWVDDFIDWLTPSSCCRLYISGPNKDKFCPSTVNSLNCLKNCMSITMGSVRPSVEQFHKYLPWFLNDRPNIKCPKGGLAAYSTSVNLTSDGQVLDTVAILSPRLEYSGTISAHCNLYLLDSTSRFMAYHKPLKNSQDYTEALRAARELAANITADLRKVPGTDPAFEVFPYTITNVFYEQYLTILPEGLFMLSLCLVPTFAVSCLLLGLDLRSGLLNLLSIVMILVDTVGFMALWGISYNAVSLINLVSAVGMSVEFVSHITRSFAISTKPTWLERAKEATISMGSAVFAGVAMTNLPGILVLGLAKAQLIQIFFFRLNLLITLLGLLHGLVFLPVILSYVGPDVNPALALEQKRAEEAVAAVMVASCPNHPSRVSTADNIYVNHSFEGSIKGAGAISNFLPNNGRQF
The data set can be described thus: Inhibition of NPC1L1 in human Caco2 cells assessed as decrease in cholesterol uptake at 100 uM preincubated for 24 hrs followed by stigmosterol substrate addition measured after 24 hrs by HPLC method relative to control. The class given is cell-based.

A short description of data set [9]: Cytotoxicity against HEK293 cells after 48 hrs by MTT assay. In kind it is cell-based. The settings on record: human, read-out: LC50.
The nature of data set [10]: Octanol-water partition coefficient, log P of the compound measured after 4 hrs by HPLC analysis. In kind it is physicochemical.
The target in data set [11] is T1, NPC1-like intracellular cholesterol transporter 1 (Homo sapiens). The data set can be described thus: Inhibition of NPC1L1 in human Caco2 cells assessed as decrease in cholesterol uptake at 100 uM preincubated for 24 hrs followed by stigmosterol substrate addition measured after 24 hrs by HPLC method. The class given is cell-based.
In data set [12] the test system is RAW264.7. The data set can be described thus: Antiinflammatory activity against mouse RAW264.7 cells assessed as decrease in cholesterol-methyl-beta-cyclodextrin-induced ROS level. In kind it is functional, cell-based.
Data set [13] deals with RAW264.7. Nature of the data set: Antiinflammatory activity against mouse RAW264.7 cells assessed as decrease in cholesterol-methyl-beta-cyclodextrin-induced TNFalpha release. In kind it is functional, cell-based.
The target in data set [14] is NPC1-like intracellular cholesterol transporter 1 (Mus musculus) (UniProt Q6T3U4). The data set can be described thus: Inhibition of NPC1L1-mediated cholesterol-methyl-beta-cyclodextrin accumulation in mouse RAW264.7 cells assessed as decrease in foam cell formation by measuring decrease in MDA level. The class given is cell-based.
The target is the same in data set [15]. Nature of the data set: Inhibition of NPC1L1-mediated cholesterol-methyl-beta-cyclodextrin accumulation in mouse RAW264.7 cells assessed as decrease in foam cell formation by measuring decrease in LDH level. The class given is cell-based.

With `O=C1[C@H](CC[C@H](O)c2ccc(F)cc2)[C@@H](c2ccc(O)cc2)N1c1ccc(F)cc1` [EZETIMIBE], the Activity with RAW264.7 [1] turned out to be 46.5%; in data set [4], 36.4%; in data set [6] it was 76.3%; in the data set on RAW264.7 [7] it was 30.9%. Further, the inhibition (as a rule, the drop in the measured response relative to a control, in per cent) in data set [2] is “Dose-dependent effect”; in [5], 80.3%; in data set [8], 51.3%. In addition, the CC50 at 48 h in [3] worked out at 44.2 µM; in data set [9], 57.6 µM.
In the case of `CCN(CC)CCCOc1ccc(C2=C(c3ccc(F)cc3)C(=O)N(CCC(O)(c3ccccc3)c3ccccc3)C2=O)cc1`, the logP (usually a log measure of how a compound divides between an organic and an aqueous phase) at 4 h in data set [10] was above 5. Besides, the CC50 at 48 h in data set [3] amounted to 37.6 µM; in data set [9], 32.7 µM. Moreover, the inhibition in data set [8] lay within 69.6 to 72.6%.
With `O=C1C(c2ccc(F)cc2)=C(c2ccc(OCCCCS(=O)(=O)O)cc2)C(=O)N1CCC(O)(c1ccccc1)c1ccccc1`, the inhibition result in data set [11] was “inactive”.
In the case of `CCN(CC)CCOc1ccc(C2=C(c3ccc(F)cc3)C(=O)N(CCC(O)(c3ccccc3)c3ccccc3)C2=O)cc1`, the logP at 4 h in data set [10] was above 5. The CC50 at 48 h in [3] worked out at 32.7 µM; in data set [9], 31.5 µM. In data set [8], the inhibition lay within 69.6 to 72.6%.
Molecule `CCN(CC)CCCCOc1ccc(C2=C(c3ccc(F)cc3)C(=O)N(CCC(O)(c3ccccc3)c3ccccc3)C2=O)cc1` came in with a logP at 4 h in data set [10] above 5. The CC50 at 48 h in [3] is 43.2 µM; in data set [9], 47.3 µM. For the same molecule, in [8], the inhibition lay within 69.6 to 72.6%.
For `O=C1C(c2ccc(F)cc2)=C(c2ccc(OCCCS(=O)(=O)O)cc2)C(=O)N1CCC(O)(c1ccccc1)c1ccccc1`, the inhibition result in [11] is “inactive”.
In data set [10], `Cc1ccc(S(=O)(=O)NCCCCN2C(=O)C(c3ccc(F)cc3)=C(c3ccc(OCC(=O)NCC(=O)NCC(=O)O)cc3)C2=O)cc1` yielded a logP at 4 h of 2 to 4. Moreover, the CC50 at 48 h in data set [3] and in data set [9] was above 100 µM throughout. Moreover, in data set [11], the inhibition result was “Active”.
Turning to `CCc1ccc(S(=O)(=O)NCCN2C(=O)C(c3ccc(O)cc3)=C(c3ccc(F)cc3)C2=O)cc1`, in data set [10], the logP at 4 h fell in the range of 2 to 4. Moreover, the CC50 at 48 h in data set [3] was above 100 µM; in data set [9], 80.4 µM. Further, the inhibition result in [11] is “Active”.
Consider `CCc1ccc(S(=O)(=O)NCCCCN2C(=O)C(c3ccc(F)cc3)=C(c3ccc(OCC(=O)NCC(=O)NCC(=O)O)cc3)C2=O)cc1`, for which the logP at 4 h in [10] was in the range of 2 to 4. The CC50 at 48 h in data set [3] and in [9] was above 100 µM in each case. Further, in data set [11], the inhibition result is “Active”.
Take `O=C1C(c2ccc(F)cc2)=C(c2ccc(OCCS(=O)(=O)O)cc2)C(=O)N1CCC(O)(c1ccccc1)c1ccccc1`: the inhibition entry in data set [11] was “inactive”.
As to `O=C1C(c2ccc(O)cc2)=C(c2ccc(F)cc2)C(=O)N1CCCNS(=O)(=O)c1ccc(C(F)(F)F)cc1`, the log partition coefficient (logP) at 4 h in data set [10] is 2 to 4. The CC50 at 48 h is 34.3 µM in data set [3] and 19.7 µM in data set [9]. The inhibition result in data set [11] was “Active”.
As to `O=C1C(c2ccc(O)cc2)=C(c2ccc(F)cc2)C(=O)N1CCC(O)(c1ccccc1)c1ccccc1`, the Activity entry was “Dose-dependent effect” in the data set with RAW264.7 [12]; “Dose-dependent effect” with RAW264.7 [13]; 51% in the data set on RAW264.7 [1]; 33.3% in [4]; 79.6% in data set [6]; 35.1% in the data set on RAW264.7 [7]. Moreover, in data set [10], the logP at 4 h fell in the range of 2 to 4. Besides, the inhibition result in data set [14] is “Dose-dependent effect”; in [2], “Dose-dependent effect”; in data set [15], “Dose-dependent effect”; in [5], 67.9%. The CC50 at 48 h in [3] and in data set [9] was above 100 µM each time. Further, in data set [11], the inhibition result was “Active”.
In turn, `CCc1ccc(S(=O)(=O)NCCCN2C(=O)C(c3ccc(O)cc3)=C(c3ccc(F)cc3)C2=O)cc1` displayed a logP at 4 h in data set [10] of 2 to 4. In addition, the CC50 at 48 h in [3] was determined as 17.2 µM; in [9] it was 11.5 µM. Moreover, the inhibition entry in data set [11] was “Active”.
`O=C1C(c2ccc(O)cc2)=C(c2ccc(F)cc2)C(=O)N1CCCNS(=O)(=O)c1ccc(OC(F)(F)F)cc1` had a logP at 4 h in data set [10] of 2 to 4. Also, the CC50 at 48 h in [3] was determined as 41.2 µM; in data set [9] it was 24.8 µM. In addition, in [11], the inhibition entry is “Active”.
